Patent publication US20240156800A1, “EP300 DEGRADER AND USES THEREOF IN NEUROBLASTOMA” (DANA-FARBER CANCER INSTITUTE, INC., priority 2021, published 2024)
“Also recorded” adds a separate entry of the source.

How the values were obtained:
Kelly NB cell xenografts = test: Kelly NB cell subcutaneous xenografts in NSG mice; type: in vivo; details: 40 mg/Kg IP once or twice daily
Method: For tumor studies, eight-week-old female NSG™ mice (Jackson Laboratories) were subcutaneously implanted with 2.5×10^6 Kelly cells in 50% matrigel/PBS. Mice were assigned to three groups: vehicle (n=11), JQAD1 (40 mg/kg/day) (n=12) or JQAD1 (40 mg/kg, twice daily) (n=12) by IP injection. Treatment with small-molecule inhibitors was initiated once tumors engrafted and reached 100-150 mm^3. Mice were treated for 21 days and then followed for survival. Tumors were measured by calipers, and mice were weighed every three days. Animals were euthanized according to institutional guidelines when tumors reached […] in length or width, or if animals became moribund. Tumor sizes were compared at each time point by two-way ANOVA with post-hoc Tukey tests. Tumor growth curve kinetics were analyzed by both logistic regression and mixed-effects two-way ANOVA with post-hoc Tukey tests to determine whether growth kinetics differed between treatment groups.
Separately, eight animals were xenografted as described above, and treated with vehicle (n=4) or JQAD1 (n=4) at 40 mg/kg IP daily for 14 days. These animals were sacrificed at day 14, following which tumor was extracted, and divided for immunohistochemical analysis or analysis of RNA expression by RNA sequencing (RNA-seq).

[1] = Toxicity study in Balb/c Crbn ILE391VAL humanized knockin mice; type: in vivo
Method: For toxicity studies, four female CD1 mice (Charles River Laboratories) were injected intraperitoneally (IP) with single doses of 10 mg/Kg (R,S)-JQAD1 solubilized in 10% hydroxypropyl β-cyclodextrin (Sigma-Aldrich®) in sterile water. Following injection, blood concentration of (R,S)-JQAD1 was measured by serial measurements of animal serum at time points out to 24 h, by liquid chromatography with tandem mass spectrometry (LC-MS/MS) analysis. Pharmacokinetics were performed at ChemPartner in Shanghai, China, using LC-MS/MS method and pharmacokinetics parameters (Tmax, Cmax, T1/2, AUC, etc.) calculated with WinNonlin® V 6.2 statistics software (Pharsight Corporation) using a noncompartmental model. For maximally tolerated dose (MTD) testing, six female CD1 mice were treated with daily IP doses of (R,S)-JQAD1 at 10, 20, or 40 mg/kg. Animals were monitored for animal weight, grooming and behavior daily without noted effects. […] Animal weights, behavior and grooming were monitored daily, for a total of 21 days. At day 14, three mice per treatment group were sacrificed and tissues fixed for immunohistochemistry. Blood samples were obtained by retro-orbital puncture and blood analyzed at the Small Animal Imaging Facility at Beth Israel Deaconess Medical Center (Boston, MA), on a Hemavet® 9500FS (Drew Scientific) for blood counts, creatinine, AST, ALT, ALP, GGTP, and BUN measurements.

[2] = tested on: cleaved caspase-3 and cleaved PARP1; test: Western blotting of apoptosis markers; type: cell-based, human; details: Kelly (1 μM) and NGP (2.5 μM) cells, 12-36 h
Method: Cells growing in culture were lysed for whole cell lysates as described in Durbin et al. Nat. Genet. 50:1240-1246 (2018) and Wang et al. Nat. Commun. 10:5622 (2019). Nuclear lysates were prepared using the NE-PER® nuclear lysate kit (Thermo Scientific™) according to the manufacturer's protocol. Chromatin lysates were prepared with the total histone extraction kit (Epigentek). Briefly, equivalent amounts of protein were resolved by western blotting using 4-12% Bis-Tris NuPAGE™ gels (Thermo-Fisher Scientific) prior to transfer, and immunoblotting using primary antibodies to: MYCN (1:1000, Cell Signaling Technology®), H3K27ac (1:1000, Abcam), total H3 (1:1000, Cell Signaling Technology®), EP300 (1:1000, Abcam), CBP (1:500, Cell Signaling Technology®), Cas9 (1:1000, Cell Signaling Technology®), cleaved-PARP1 (1:1000, Cell Signaling Technology), cleaved Caspase-3 (1:1000, Cell Signaling Technology®), β-actin (1:1000, Cell Signaling Technology®), GATA3 (1:1000, EMD Millipore™), TFAP2β (1:1000, Cell Signaling Technology®), Vinculin (1:1000, EMD Millipore™), CRBN (1:1000, Cell Signaling Technology®), HAND2 (1:1000, Santa Cruz Biotechnology). Secondary antibodies were horseradish peroxidase (HRP)-conjugated anti-rabbit or anti-mouse (1:5000, Santa Cruz Biotechnology), incubated prior to exposure to enhanced chemiluminescence reagents (GE, Amersham). For immunoprecipitation, equal amounts of protein were diluted in buffer C as described in Mansour et al. Science 346:1373-1377 (2014) and incubated with antibodies covalently conjugated to Dynabeads™ M-270 beads (Thermo-Fisher Scientific) overnight according to the manufacturer's directions. Antibodies used included: H3K27ac, EP300 (Abcam), CBP, TFAP2β (Cell Signaling Technology®), rabbit immunoglobulin G (IgG) (Santa Cruz Biotechnology®). Immunoprecipitated protein was isolated as per the manufacturer's directions and subjected to western blotting, as described above, or mass spectrometry.

[3] = 40 mg/Kg IP daily, after 14 days, p NS versus vehicle

For C[C@H](N(Cc1ccc(F)cc1)C(=O)CN1C(=O)O[C@@]2(CCc3cc(NC(=O)CCCCCCCCCCCNc4ccc5c(c4)C(=O)N(C4CCC(=O)NC4=O)C5=O)ccc32)C1=O)C(F)(F)F (stereo partly drawn) [JQAD1, 12-((2-(2,6-dioxopiperidin-3-yl)-1,3-dioxoisoindolin-5-yl)amino)-N-((R)-3′-(2-((4-fluorobenzyl)((S)-1,1,1-trifluoropropan-2-yl)amino)-2-oxoethyl)-2′,4′-dioxo-2,3-dihydrospiro[indene-1,5′-oxazolidin]-5-yl)dodecanamide], the body weight (Kelly NB cell xenografts; NSG mice) was “body weight was maintained over 14 days of treatment”, the survival (Kelly NB cell xenografts; log-rank p<0.0001 versus vehicle) was “prolongation of survival; also recorded: prolongs survival” and the xenograft tumor growth (Kelly NB cell xenografts; p<0.05) was “suppression of xenograft tumor growth by day 3 of treatment”. The tolerability ([1]; 40 mg/Kg IP daily for 21 days, measurements after 14 days) was “well tolerated, with no effects on grooming, behavior, weight, peripheral blood counts, liver function tests or creatinine measurements”, the “tissue pathology (hematoxylin and eosin)” value ([1]; 40 mg/Kg IP daily, 14 days, blinded pathologist) was “no gross changes in tissue architecture or immune infiltrate; also recorded: no histologic or biochemical evidence of toxicity in the liver” and the ALP [1, 3] was 51. It also gave an ALT [1, 3] of 54, an AST [1, 3] of 37 and an Albumin [1, 3] of 3.2. It also gave a Basophils [1, 3] of 0.02 K/μL, a Creatinine [1, 3] of 0.17 and an Eosinophils [1, 3] of 0.10. The GGTP [1, 3] was 5, the Hematocrit [1, 3] was 41.2% and the Hemoglobin [1, 3] was 13.35. The Lymphocytes [1, 3] was 1.80, the Monocytes [1, 3] was 0.35 K/μL and the Neutrophils [1, 3] was 1.2. The Platelet [1, 3] was 528 K/μL, the WBC [1, 3] was 3.46 K/μL and the “toxicity (blood counts, liver and kidney function tests, weight, grooming)” value ([1]; twice daily 40 mg/Kg IP for 14 days) was “no toxicity was observed”. The “apoptosis: cleavage of caspase-3 and PARP1” value [2] was “induction of cellular apoptosis marked by cleavage of caspase-3 and PARP1”.
